Data: patent US6500849B1, “1-alkyl-, 1-alkenyl-, and 1-alkynylaryl-2-amino 1,3-propanediols and related compounds” (Aventis Pharmaceuticals Inc., priority 1990, dated 2002)
Converted amounts (≈) assume the structure as drawn.

Columns and labels:
[1] = test system: Trichophyton Mentagrophytes; assay: Antifungal assay (microtitration technique); assay type: cell-based; settings: Trichophyton Mentagrophytes strain 100/25, 5 days at 30° C.; for MIC: 120 h
Experimental: (§1) The microtiter plate is prepared as follows: The wells are each filled (2 rows/strain) with 50 μl neopeptone-dextrose broth (12-channel pipette). In addition, one row/strain is coated with 50 μl yeast-nitrogen base/well for yeasts and moulds. […] All wells are then inoculated with 150 μl standardized organism suspension (yeasts: 1×10^3 organisms/ml suspension; cutaneous fungi and moulds: 1.6×10^5 organisms/ml suspension); the total volume is 200 μl per well. There is also a growth control (inoculated, not medicated), a solvent control (inoculated, not medicated, containing solvent as in medicated rows) and a negative control (not inoculated, not medicated). Incubation for 5 days at 30° C. is followed by photometric evaluation. The obtained measurements are checked visually (macroscopically and microscopically) and corrected where necessary. Criteria for Evaluation of the Antimycotic Effect a. Photometric measurements (matrix method) b. Growth, macroscopic evaluation c. Growth, microscopic evaluation (inversion light microscope, magn. 64×).

[2] = test system: Trichophyton Vaginalis; assay: Antifungal assay (microtitration technique); assay type: cell-based; settings: Trichophyton Vaginalis strain 111/216, 5 days at 30° C.; for MIC: 120 h
Experimental: as §1

[3] = test system: Trichophyton Rubrum; assay: Antifungal assay (microtitration technique); assay type: cell-based; settings: Trichophyton Rubrum strain 101/85, 5 days at 30° C.; for MIC: 120 h
Experimental: as §1

[4] = test system: Microsporum Canis; assay: Antifungal assay (microtitration technique); assay type: cell-based; settings: Microsporum Canis strain 150/353, 5 days at 30° C.; for MIC: 120 h
Experimental: as §1

[5] = test system: Candida Albicans; assay: Antifungal assay (microtitration technique); assay type: cell-based; settings: Candida Albicans strain 200/175, 5 days at 30° C.; for MIC: 120 h
Experimental: as §1

[6] = test system: Aspergillus Niger; assay: Antifungal assay (microtitration technique); assay type: cell-based; settings: Aspergillus Niger strain 500/284, 5 days at 30° C.; for MIC: 120 h
Experimental: as §1

[7] = test system: male CFW mice; assay: Dark avoidance assay (reversal of scopolamine induced memory deficits); assay type: in vivo; settings: sc, scopolamine 3.0 mg/kg sc
Experimental: In this assay, three groups of 15 male CFW mice were used—a vehicle/vehicle control group, a scopolamine/vehicle group, and a scopolamine/drug group. Thirty minutes prior to training, the vehicle/vehicle control group received normal saline subcutaneously, and the scopolamine/vehicle and scopolamine/drug groups received scopolamine subcutaneously (3.0 mg/kg, administered as scopolamine hydrobromide). Five minutes prior to training, the vehicle/vehicle control and scopolamine/vehicle groups received distilled water and the scopolamine/drug group received the test compound in distilled water.
The training/testing apparatus consisted of a plexiglass box approximately 48 cm long, 30 cm high and tapering from 26 cm wide at the top to 3 cm wide at the bottom. The interior of the box was divided equally by a vertical barrier into a light compartment (illuminated by a 25-watt reflector lamp suspended 30 cm from the floor) and a dark compartment (covered). There was a hole at the bottom of the barrier 2.5 cm wide and 6 cm tall and a trap door which could be dropped to prevent an animal from passing between the two compartments. […]
At the end of the pretreatment interval, an animal was placed in the light chamber directly under the light fixture, facing away from the door to the dark chamber. […] The latency is seconds for each mouse was recorded.
The test day latency in seconds for each animal was recorded and the animals were then discarded.
The high degree of variability (due to season of the year, housing conditions, and handling) found in one trial passive avoidance paradigm is well known. To control for this fact, individual cutoff (CO) values were determined for each test, compensating for interest variability. […]
The results of the dark avoidance test are expressed as the number of animals per group (%) in which this scopolamine induced memory deficit is blocked as measured by an increase in the latency period.

[8] = test system: female Swiss Webster mice; assay: TPA-induced ear edema assay; assay type: in vivo; settings: 10 μg/ear topical, after about 5 hours
Experimental: In the TPA-induced ear edema assay, TPA (12-O-tetradecanoylphorbol-13-acetate) was dissolved in 30/70 propylene glycol/ethanol and was applied to the right ear of groups of 6 female Swiss Webster mice, which were housed together in a cage under standard conditions for 1 week prior to use with food and water ad lib, at a volume of 20 μl so that a total of 10 μg of TPA is delivered to the inner and outer surfaces of the ear. The test compound was dissolved in the vehicle and was applied to the right ear (the inner and outer surface) at a volume of 20 μl so that a total of 10 μg of the compound was delivered to the ear. After about 5 hours, the animals were sacrificed, a 4 mm diameter plug was taken from each ear and weighed. The difference between the right and left ear plug weights for each animal was determined. The antiinflammatory activity of the test compound is expressed as the mean percent change in the ear plug weight of the treated animals compared to the mean percent change in the plug weight of the control animals.

[9] = molecular target: Protein kinase C; assay: Protein kinase C assay (32P incorporation into Type III histone); assay type: biochemical, rat; settings: for IC50: rat brain protein kinase C, phosphatidylserine/diacylglycerol stimulated, read-out: Protein Kinase Inhibitory Activity IC50
Experimental: (see U. Kikkawa, et al., Biochemical and Biophysical Research Communications, 135, 636 (1986) and R. M. Bell, et al. “Methods in Enzymology, Hormone Action,” Part J, P.M. Conn, Ed., Academic Press, Inc., New York, N.Y. 1986, page 353). Protein kinase C enzyme extract was prepared from the brain of male Wistar rats weighing 180 to 200 g and purified by the method of U. Kikkawa, et al., ibid. 636. The purified extract was stored at −80° C., and aliquots were used in the protein kinase C assay performed by a modification of the method of R. M. Bell, et al., ibid. al 354. To perform the assay, duplicate aliquots of duplicate samples are employed. Basal or unstimulated protein kinase C, phosphatidylserine/diacylglycerol stimulated protein kinase C, and test samples are run in each assay. […] The assay tubes were allowed to warm to 25° C. and an 8 μl mixture of adenosine 5′-triphosphate (100 μM) and ^32P-adenosine triphosphate (1 to 2×10^5 counts per minute) was added to each tube for a final volume of 80 μl per tube. After 2 min, the reaction (the incorporation of phosphorous into Type III histone) was terminated by spotting the assay mixture on phosphocellulose paper. The spots are cut out of the paper and the radioactivity (counts per min) of each spot was determined in a scintillation counter.

[10] = test system: Clost. tetani; assay: Anerobic antibacterial assay (agar dilution, Wilkins-Chalgren agar); assay type: cell-based; settings: Clost. tetani 19406; anaerobic; 48 hours at 37° C.
[11] = test system: Propionibact. acnes; assay: as above; assay type: cell-based; settings: anaerobic, 48 hours at 37° C.
[12] = test system: Bact. vulgatus; assay: as above; assay type: cell-based; settings: Bact. vulgatus 1446; anaerobic; 48 hours at 37° C.
[13] = test system: Peptostr. anaerobius; assay: as above; assay type: cell-based; settings: Peptostr. anaerobius 932; anaerobic; 48 hours at 37° C.
[14] = test system: Bact. distasonis; assay: as above; assay type: cell-based; settings: Bact. distasonis 1366; anaerobic; 48 hours at 37° C.
[15] = test system: Bact. thetaiotaom.; assay: as above; assay type: cell-based; settings: anaerobic, 48 hours at 37° C.
[16] = test system: Bact. fragilis; assay: as above; assay type: cell-based; settings: anaerobic, 48 hours at 37° C.
[17] = test system: Spaeroph. freundii; assay: as above; assay type: cell-based; settings: Spaeroph. freundii 1369; anaerobic; 48 hours at 37° C.
[18] = test system: Fusobact. varium; assay: as above; assay type: cell-based; settings: anaerobic, 48 hours at 37° C.
[19] = test system: Bact. ovatus; assay: as above; assay type: cell-based; settings: Bact. ovatus 103; anaerobic; 48 hours at 37° C.
[20] = test system: Clost. perfringens; assay: microbe, parasite or virus in culture; assay type: cell-based; settings: Clost. perfringens 194; anaerobic; 48 hours at 37° C.

Clc1ccccc1C(c1ccccc1)(c1ccccc1)n1ccnc1 [Clotrimazol, reference compound]
MIC [1]: 0.97 µg/mL (≈ 2.81 µM)
MIC [2]: 62.5 µg/mL (≈ 181 µM)
MIC [3]: 0.24 µg/mL (≈ 0.696 µM)
MIC [4]: 0.06 µg/mL (≈ 0.174 µM)
MIC [5]: 3.9 µg/mL (≈ 11.3 µM)
MIC [6]: 1.95 µg/mL (≈ 5.65 µM)

Cc1cc(C2CCCCC2)n(O)c(=O)c1 [Cyclopirox, reference compound]
MIC [1]: 1.95 µg/mL (≈ 9.41 µM)
MIC [2]: 15.6 µg/mL (≈ 75.4 µM)
MIC [3]: 1.95 µg/mL (≈ 9.41 µM)
MIC [4]: 1.95 µg/mL (≈ 9.41 µM)
MIC [5]: 1.95 µg/mL (≈ 9.41 µM)
MIC [6]: 0.97 µg/mL (≈ 4.68 µM)

CCCCCCCCC#Cc1cccc(C(O)C(NC(C)=O)C(=O)OCC)n1 (stereo not drawn) [Ethyl erythro-2-acetamido-3-[6-(1-Decynyl)-2-pyridinyl]-3-hydroxypropionate]
Percent of Animals with Scopolamine Induced Memory Deficit Reversal ([7]; Dose 3.0 mg/kg): 27%

CCCCCCCCCCC#Cc1cccc(C(O)C(NC(C)=O)C(=O)OCC)n1 (stereo not drawn) [Ethyl erythro-2-acetamido-3-[6-(1-Dodecynyl)-2-pyridinyl]-3-hydroxypropionate]
Antiinflammatory Activity Percent Decrease in Ear Plug Weight at 10 μg/ear [8]: 50%
IC50 [9]: 29 µM

CCCCCCCCCCC=Cc1cccc(C(O)C(CO)NC(C)=O)n1 (stereo not drawn) [cis-erythro-N-{1-[6-(1-Dodecenyl)-2-pyridinyl]-1,3-dihydroxy-2-propanyl}acetamide]
Protein Kinase Inhibitory Activity, percent inhibition at a single concentration ([9]; @ 100 μM): 66% @ 100 μM

CCCCCCCCCCCCc1cccc(C(O)C(N)CO)n1 (stereo not drawn) [erythro-2-Amino-1-(6-Dodecyl-2-pyridinyl)-1,3-propanediol]
Antiinflammatory Activity Percent Decrease in Ear Plug Weight at 10 μg/ear [8]: 24%
IC50 [9]: 8.5 µM

CCCCCCCCCCC#Cc1ccc(C(O)C(N)CO)s1 (stereo not drawn) [erythro-2-Amino-1-[5-(1-Dodecynyl)-2-thienyl]-1,3-propanediol]
Antibacterial activity (MIC, mg/l) [10]: 6.25 mg/L
Antibacterial activity (MIC, mg/l) ([11]; Propionibact. acnes 6919): 3.13 mg/L
Antibacterial activity (MIC, mg/l) ([11]; Propionibact. acnes 6922): 1.56 mg/L
Antibacterial activity (MIC, mg/l) [12]: 3.13 mg/L
Antibacterial activity (MIC, mg/l) [13]: 6.25 mg/L
Antibacterial activity (MIC, mg/l) [14]: 3.13 mg/L
Antibacterial activity (MIC, mg/l) ([15]; Bact. thetaiotaom. 123): 3.13 mg/L
Antibacterial activity (MIC, mg/l) ([15]; Bact. thetaiotaom. 1428): 6.25 mg/L
Antibacterial activity (MIC, mg/l) ([15]; Bact. thetaiotaom. 1445): 3.13 mg/L
Antibacterial activity (MIC, mg/l) ([16]; Bact. fragilis 312): 6.25 mg/L
Antibacterial activity (MIC, mg/l) ([16]; Bact. fragilis 960): 6.25 mg/L
Antibacterial activity (MIC, mg/l) ([16]; Bact. fragilis 1313): 6.25 mg/L
Antibacterial activity (MIC, mg/l) ([16]; Bact. fragilis 17390): 3.13 mg/L
Antibacterial activity (MIC, mg/l) ([16]; Bact. fragilis 18125): 3.13 mg/L
Antibacterial activity (MIC, mg/l) ([16]; Bact. fragilis 19016): 6.25 mg/L
Antifungal Activity MIC [1]: 3.900 µg/mL
Antifungal Activity MIC [2]: 15.625 µg/mL
Antifungal Activity MIC [3]: 15.625 µg/mL
Antifungal Activity MIC [4]: 3.900 µg/mL
Antifungal Activity MIC [5]: 1.950 µg/mL
Antifungal Activity MIC [6]: 3.900 µg/mL
Antibacterial activity (MIC, mg/l) [17]: 1.56 mg/L
Antibacterial activity (MIC, mg/l) ([18]; Fusobact. varium 3085): 6.25 mg/L
Antibacterial activity (MIC, mg/l) ([18]; Fusobact. varium 5262): 3.13 mg/L
Antibacterial activity (MIC, mg/l) [19]: 3.13 mg/L
Antibacterial activity (MIC, mg/l) [20]: 6.25 mg/L

CCCCCCCCC#Cc1cccc(C(O)C(CO)NC(C)=O)n1 (stereo not drawn) [erythro-N-{1-[6(1-Decynyl)-2-pyridinyl]-1,3-dihydroxy 2-propanyl}acetamide]
Percent of Animals with Scopolamine Induced Memory Deficit Reversal ([7]; Dose 3.0 mg/kg): 33%

CNC(=O)Oc1ccc2c(c1)[C@]1(C)CCN(C)[C@@H]1N2C [physostigmine, reference compound]
Percent of Animals with Scopolamine Induced Memory Deficit Reversal ([7]; Dose 0.31 mg/kg): 20%

CCCCCCCCCCc1cccc(C(O)C(N)CO)n1 (stereo not drawn) [threo-2-amino-1-(6-decyl)-2-pyridinyl)-1,3-propanediol] [threo-2-Amino-1-(6-Decyl-2-pyridinyl)-1,3-dihydroxypropane]
Antiinflammatory Activity Percent Decrease in Ear Plug Weight at 10 μg/ear [8]: 30%
IC50 [9]: 25 µM
